Assay results as given in ChEMBL document CHEMBL5113511, “Discovery of Small-Molecule Degraders of the CDK9-Cyclin T1 Complex for Targeting Transcriptional Addiction in Prostate Cancer” (J Med Chem, 2022).
Activity calls are given as the source filed them. The calls are words filed in the database; no cut-off is given here.

Columns and labels:
Format in all cases: cell-based
[1] = target: Cyclin-dependent kinase 1 (Homo sapiens) (UniProt P06493); experiment: Induction of CDK1 degradation in human 22Rv1 cells assessed as downregulation of CDK1 level at 3 uM measured after 12 hrs by DIA-based proteomics analysis
Chain of Cyclin-dependent kinase 1 (Homo sapiens) (P06493 whole entry, looked up): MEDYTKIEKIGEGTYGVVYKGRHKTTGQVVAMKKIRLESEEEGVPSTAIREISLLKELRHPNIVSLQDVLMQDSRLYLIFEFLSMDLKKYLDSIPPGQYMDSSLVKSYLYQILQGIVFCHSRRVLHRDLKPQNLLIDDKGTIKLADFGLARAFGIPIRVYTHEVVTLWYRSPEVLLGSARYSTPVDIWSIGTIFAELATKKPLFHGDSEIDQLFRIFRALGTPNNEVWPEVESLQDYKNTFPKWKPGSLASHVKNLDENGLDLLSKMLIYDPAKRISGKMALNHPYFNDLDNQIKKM

[2] = target: Cyclin-dependent kinase 7 (Homo sapiens) (UniProt P50613); experiment: Induction of CDK7 degradation in human 22Rv1 cells assessed as downregulation of CDK7 level at 3 uM measured after 12 hrs by DIA-based proteomics analysis
Chain of Cyclin-dependent kinase 7 (Homo sapiens) (P50613 whole entry, canonical isoform): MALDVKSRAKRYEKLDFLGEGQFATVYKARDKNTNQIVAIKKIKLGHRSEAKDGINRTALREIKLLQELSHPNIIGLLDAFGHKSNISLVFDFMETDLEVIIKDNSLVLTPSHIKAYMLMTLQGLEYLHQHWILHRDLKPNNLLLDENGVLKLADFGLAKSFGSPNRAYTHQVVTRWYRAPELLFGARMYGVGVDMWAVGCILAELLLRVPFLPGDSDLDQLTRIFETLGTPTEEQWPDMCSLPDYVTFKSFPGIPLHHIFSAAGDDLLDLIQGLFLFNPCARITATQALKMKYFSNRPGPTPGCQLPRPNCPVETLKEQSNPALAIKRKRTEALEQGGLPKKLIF

[3] = target: T1, CDK9/cyclin T1 (Homo sapiens) (UniProt O60563+P50750); experiment: Induction of CDK9/Cyclin T1 degradation in human 22Rv1 cells assessed as downregulation of AR-V7 splice variant protein expression at 2 uM measured after 48 hrs by immunoblot analysis relative to control
[4] = target: T1, CDK9/cyclin T1 (Homo sapiens); experiment: Induction of CDK9/Cyclin T1 degradation in human 22Rv1 cells assessed as inhibition of Ser2 phosphorylation of RNA Pol II CTD at 0.3 to 3 uM incubated for 24 hrs by immunoblot analysis; details: dose 0.3-3 µM
[5] = target: T1, CDK9/cyclin T1 (Homo sapiens); experiment: Induction of CDK9/Cyclin T1 degradation in human 22Rv1 cells assessed as downregulation of VIM gene expression at 2 uM incubated for 24 hrs by RNA-Seq based analysis
[6] = target: T1, CDK9/cyclin T1 (Homo sapiens); experiment: Induction of CDK9/Cyclin T1 degradation in human 22Rv1 cells assessed as downregulation of KLK2 gene expression at 2 uM incubated for 24 hrs by RNA-Seq based analysis

In the case of CC(C)[C@@H]1CC[C@@H](C)C[C@H]1OCC(=O)NCCS(=O)(=O)N1CCC(C(=O)Nc2ncc(SCc3ncc(C(C)(C)C)o3)s2)CC1, the Activity [1] is reported as “Active”, the Activity [2] is reported as “Active” and the Activity [3] is reported as 100%. For the same compound, the Activity [4] was “Active”, the Activity [5] was “Active” and the Activity [6] was “Active”.
